Test results: patent US11000509B2, “Methods and compositions for daily ophthalmic administration of phentolamine to improve visual performance” (Ocuphire Pharma, Inc., priority 2013, dated 2021)
Where a name gives a salt, the structure may show the parent alone.

Test system: eyes of patients suffering from severe night vision difficulty
Experiment: Example 1 clinical study: mesopic contrast sensitivity with glare, Holladay Automated Contrast Sensitivity System
Format: in vivo, humans
Conditions: for percentage of eyes with at least a 50% improvement in contrast sensitivity relative to baseline: 0.5% or 1.0% (w/v) once daily, beginning with day 8
Excerpt: Sixty patients with normal day vision (i.e., 20/40 or better) but which suffer from severe night vision difficulty were enrolled in the study. During the first period of the study, patients were randomized into three groups. The groups received either placebo, 0.5% (w/v) phentolamine mesylate, or 1.0% (w/v) phentolamine mesylate once daily for 15 days. The patients were observed on days 1, 4, 8, and 15 prior to administering the ophthalmic solution of phentolamine mesylate and then observed again two hours after the ophthalmic solution of phentolamine mesylate was administered. During the second period of the study, all sixty patients were instructed to administer an ophthalmic solution of phentolamine mesylate (1% (w/v)) as needed, but no more than once daily to each eye. The ophthalmic solution of phentolamine mesylate contained: 1% (w/v) phentolamine mesylate, 4% (w/v) mannitol, 3 mM sodium acetate, and water. The placebo was a solution containing 4% (w/v) mannitol, 3 mM sodium acetate, and water.
Patients in the study satisfied the following criteria: (1) 18-45 years of age and suffer from severe night vision difficulty, (2) 0.3 log improvement at two of five spatial frequencies (1.5, 3, 6, 12, and 18 cycles per degree) in at least one eye before and during illumination of the contralateral eye, using the Holladay Automated Contrast Sensitivity System test under mesopic room illumination with glare, and (3) photopic distance high-contrast visual acuity (corrected or uncorrected) of 20/40 or better in at least one eye.
Patients were to meet with a clinician for evaluation on study days 1, 4, 8, 15, and a post-dosing follow-up evaluation three or more days after administering the last dose in the second period. When patients met with the clinician, the following observations were made by the clinician: (1) mesopic contrast sensitivity with and without glare using the Holladay Automated Contrast Sensitivity System test, (2) mesopic distance high-contrast visual acuity using E-ETDRS Acuity Testing, (3) mesopic distance low-contrast visual acuity using E-ETDRS Acuity Testing, (4) photopic distance high-contrast visual acuity using E-ETDRS Acuity Testing, and (5) eye redness using the Cornea and Contact Lens Research Unit (CCLRU) Redness Grading Scale developed by the School of Optometry, University of New South Wales, but that the grading scale was as follows: (0) none, (0.5) very slight, (1) slight, (2) moderate, and (3) severe.
The primary efficacy endpoint is an increase of at least 0.3 log (50% or more improvement) in mesopic contrast sensitivity with glare at two or more frequencies at 1.5, 3, 6, 12, and 18 cycles per degree, measured with Holladay Automated Contrast Sensitivity System methodology.

pharmacokinetic half-life (from percentage of eyes with at least 50% improvement in contrast sensitivity after the last dose, second period, 1% (w/v) (FIG. 4A)): approximately two
SMILES: Cc1ccc(N(CC2=NCCN2)c2cccc(O)c2)cc1 [Phentolamine Mesylate, phentolamine mesylate]
percentage of eyes with at least a 50% improvement in contrast sensitivity relative to baseline (tested prior to that day's dose (FIG. 2)): greater than 20%
percentage of eyes with at least a 50% improvement in contrast sensitivity relative to baseline (tested two hours after that day's dose (FIG. 1)): greater than 20%
percentage of eyes with at least a 50% improvement in contrast sensitivity, change over time (measured prior to that day's administration, from day 15 to day 32 (FIG. 3)): increased
efficacy with repeated dosing (contrast sensitivity) (once daily during the 15-day study period (FIGS. 1 and 2)): no diminution in efficacy was observed
